Patent US20220105157A1, “Compositions and Methods for Promoting Angiogenesis in the Eye” (The Regents of the University of California, priority 2019, published 2022)

Assays:
[1] = system: bovine retinal endothelial (BRE) cells; test: BRE endothelial cell proliferation assay (alamar blue); type: cell-based
Method: (§1) The bovine endothelial proliferation assays were performed essentially as previously described (63, 64). BCE (1×10^3 cells/well) or BRE (5×10^2 cells/well) cells were seeded in 96-well plates in the culture medium (DMEM-low glucose supplemented with 10% BCS, 2 mM glutamine and antibiotics) plus testing materials with a total volume of 200 μl per well. BAE cells were plated in 96-well plates at a density of 2×10^3 cells in the culture medium (DMEM-low glucose supplemented with 1% BCS and antibiotics) plus testing material with a total volume of 200 μl per well. HRME cells were seeded at a density of 1×10^3 cells/well in gelatin-coated 96-well plates in assay medium (DMEM-low glucose supplemented with 20% FBS and antibiotics) plus testing materials to make a total volume 200 μl per well. For assays involving antibodies or small-molecule inhibitors, inhibitors or vehicle controls were first added and then test materials were added one hour later. After 6 days (unless otherwise specified), cells were incubated with alamar blue for 4 h. Fluorescence was measured at 530 nm excitation wavelength and 590 nm emission wavelength. Each experiment was carried out in duplicate/triplicate and repeated at least three times.

[2] = system: human retinal microvascular endothelial (HRME) cells; test: HRME endothelial cell proliferation assay (alamar blue); type: cell-based
Method: as §1

[3] = system: bovine aortic endothelial (BAE) cells; test: BAE endothelial cell proliferation assay (alamar blue); type: cell-based
Method: as §1

[4] = system: phosphorylation of STAT3, ERK and AKT in BCE cells; test: Western blotting of LIF signaling in BCE cells; type: cell-based, bovine; conditions: LIF treatment for 15 minutes
Method: (§2) BCE and BAE cells were cultured in growth medium overnight. Growth medium was removed and then cells were washed twice with PBS. Recombinant human LIF was added to cells for 15 minutes, following 3-hour incubation in the following medium: DMEM-low glucose supplemented with 10% BCS, 2 mM glutamine and antibiotics for BCE cells, and DMEM-low glucose supplemented with 1% BCS and antibiotics for BAE cells. […] Cells were then lysed with RIPA lysis buffer (Life Technologies, CAT #89901) plus protease and phosphatase inhibitor cocktail (ThermoFisher Scientific CAT #78440). Protein concentrations in cell lysates were measured with the BCA assay (ThermoFisher Scientific CAT #23227). Equal amount of proteins were subjected to electrophoresis in NuPAGE 4-12% Bis-Tris gels (ThermoFisher Scientific, CAT #NW04125BOX) and then transferred onto PVDF membranes. Membranes were blocked with 5% non-fat milk in TBST at room temperature for 1 hour, incubated with primary antibodies indicated below in TBST containing 0.5% non-fat milk at 4° C. overnight then with secondary HRP-conjugated antibodies (1:2000, GE Healthcare) at room temperature for 1 h. Signals were developed with SuperSignal™ West Pico PLUS Chemiluminescent Substrate (ThermoFisher Scientific). Primary antibodies used: anti-phospho-STAT3 (Cell Signaling, CAT #9131, 1:3000), anti-STAT3 (Cell Signaling, CAT #4904, 1:3000), anti-phospho-ERK (Cell Signaling, CAT #4376, 1:5000), anti-ERK (Cell Signaling, CAT #4695, 1:5000), anti-phospho-AKT Ser473 (Cell Signaling, CAT #4060, 1:2000), anti-AKT (Cell Signaling, CAT #4691, 1:2000) and HRP-conjugated anti-beta-actin (Sigma, CAT #AC-15, 1; 10000).

[5] = system: phosphorylation of STAT3, ERK and AKT in BAE cells; test: Western blotting of LIF signaling in BAE cells; type: cell-based, bovine; conditions: LIF treatment for 15 minutes
Method: as §2

BAE cells [6] = test: Annexin V staining for cell death; type: cell-based, bovine; conditions: BAE cells treated with LIF (10 ng/ml) for 24 hours
Method: BAE cells were plated at a density of 2×10^4 cells/well with 1 ml of culture medium (DMEM-low glucose plus 10% BCS) in 12-well plates and then incubated at 37° C. overnight. After removal of culture medium, cells were incubated in 0.5 ml of DMEM-low glucose plus 1% BCS. LIF (10 ng/ml) and vehicle control (0.1% BSA in PBS) were added to the cells. Following LIF treatment for 24 hours, cells were examined for cell death marker Annexin V using Annexin V-Cy5 Apoptosis Staining Detection Kit (Abcam, CAT #ab14150) according to manufacturer's instructions. Briefly, cell culture medium was removed and 0.5 ml of Annexin V binding solution was laid over onto the cells. Cells were incubated at room temperature for 5 min following addition of 5 μl of Annexin V-Cy5. Then, the staining solution was discarded and replaced with 0.5 ml of Annexin V binding solution. Imaging of Annexin V staining were performed using Keyence Microscope BZ-X710 (Keyence Corporation, Osaka, Japan). Four random fields were selected and the percentages of Annexin V-staining area in total cell-covered area as indicatives for cell death were determined using ImageJ software. The experiment was carried out in triplicate and repeated three time.

BAE cells [7] = test: BrdU incorporation assay; type: cell-based, bovine; conditions: LIF 48 hours
Method: BAE cells were plated at the density of 2×10^4 cells/well with 1 ml of culture medium (DMEM-low glucose plus 10% BCS) in a 12-well plate with a 18-mm poly-D-lysine-treated coverslip in each well, incubating at 37° C. overnight. After removal of culture medium, cells were incubated in 0.5 ml of DMEM-low glucose plus 1% BCS. LIF (10 ng/ml) and vehicle control (0.1% BSA in PBS) were added to the cells. Upon LIF treatment for 48 hours, cells were subjected to BrdU incorporation by adding 2.5 μl of 2 mM BrdU in DMSO to each well to a final concentration 10 μM and incubating for 4 hours. Then, cells are subjected to BrdU immunofluorescence staining using an antibody against BrdU conjugated with Fluor alexa-488 (Biolegend, CAT #364106, 1:400). Briefly, BrdU labeling medium was removed from the culture plates and cells were fixed with 3.7% formaldehyde in PBS at room temperature for 15 minutes. Cell DNAs were denatured with 1N HCl on ice for 10 minutes and 2N HCl at room temperature for 10 minutes following cell permeabilization with 0.1% Triton X-100 in PBS (PBST). […] Four fields were randomly selected for each sample and the BrdU-positive nuclei as well as total nuclei (DAPI-positive) were counted manually; the percentages of BrdU-positive cells were determined by dividing the numbers of BrdU-positive nuclei with the numbers of total nuclei. […]

LIF: recombinant human leukemia inhibitory factor, a member of the IL-6 family of cytokines
mitogenic activity on BRE cells [1]: exerted mitogenic activity | effect on VEGF-stimulated growth of human retinal microvascular endothelial cells ([2]; LIF added to VEGF): significantly enhanced VEGF-stimulated growth | mitogenic response in human retinal microvascular endothelial cells ([2]; LIF alone): did not elicit a strong mitogenic response | BAE cell growth [3]: growth inhibition | AKT phosphorylation [4]: little effects | phosphorylation of ERK [4]: elicited phosphorylation | phosphorylation of STAT3 [4]: elicited phosphorylation | phosphorylation of AKT [5]: led to phosphorylation | phosphorylation of ERK (MAPK) [5]: led to phosphorylation | phosphorylation of STAT3 [5]: led to phosphorylation | Annexin V positive cells (cell death marker) (BAE cells [6]): increased proportion of cells were Annexin V positive | BrdU incorporation compared to the vehicle control (BAE cells [7]): significantly reduced
